#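 At the GI50, growth is halved. Definition used: TGI = concentration required for complete inhibition of growth.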
# Legend:
# Experiment in all cases: growth of human tumour cells (NCI), 384-well format
# [1] = test system: MDA-MB-435 melanoma
# [2] = test system: BT-549 breast
# [3] = test system: SN12C renal
# [4] = test system: ACHN renal
# [5] = test system: UO-31 renal
# [6] = test system: A549 NSCLC
# [7] = test system: RPMI-8226 leukemia
# [8] = test system: MCF7 breast
# [9] = test system: A498 renal
# [10] = test system: SNB-75 CNS
# [11] = test system: DU-145 prostate
# [12] = test system: MDA-MB-231 breast
# [13] = test system: SNB-19 CNS
# [14] = test system: SR leukemia
# [15] = test system: UACC-62 melanoma
# [16] = test system: TK-10 renal
# [17] = test system: 786-0 renal
# [18] = test system: NCI-H23 lung
# [19] = test system: SF-539 CNS
# [20] = test system: HOP-92 NSCLC
# [21] = test system: COLO 205 colon
# [22] = test system: MALME-3M melanoma
# [23] = test system: OVCAR-3 ovarian
# [24] = test system: RXF 393 renal
# [25] = test system: T-47D breast
# [26] = test system: OVCAR-4 ovarian
# [27] = test system: K-562 leukemia
# [28] = test system: HCC-2998 colon
# [29] = test system: CCRF-CEM leukemia
# [30] = test system: CAKI-1 renal
# [31] = test system: NCI-H522 lung
# [32] = test system: HT29 colon
# [33] = test system: NCI-H460 NSCLC
# [34] = test system: NCI/ADR-RES ovarian
# [35] = test system: M14 melanoma
# [36] = test system: HOP-62 NSCLC
# [37] = test system: OVCAR-5 ovarian
# [38] = test system: PC-3 prostate
# [39] = test system: MDA-MB-468 breast
# [40] = test system: MOLT-4 leukemia
# [41] = test system: NCI-H226 lung
# [42] = test system: NCI-H322M lung
# [43] = test system: SK-MEL-28 melanoma
# [44] = test system: SK-MEL-5 melanoma
# [45] = test system: SF-295 CNS
# [46] = test system: LOX IMVI melanoma
# [47] = test system: IGROV1 ovarian
# [48] = test system: EKVX NSCLC
# [49] = test system: KM12 colon
# [50] = test system: SK-OV-3 ovarian
# [51] = test system: OVCAR-8 ovarian
# [52] = test system: HL-60(TB) leukemia
# [53] = test system: HS 578T breast
# [54] = test system: SW-620 colon
# [55] = test system: SF-268 CNS
# [56] = test system: HCT-15 colon
# [57] = test system: UACC-257 melanoma
smiles,measurement,setting,value
Cc1cccc(N(C)C(=O)[C@@H]2[C@H](O)CCN2c2nc(C)cc(C(F)(F)F)c2C#N)c1,GI50,[1],37.5 µM
same,TGI,[1],> 100 µM
same,GI50,[2],29.4 µM
same,TGI,[2],65.4 µM
same,GI50,[3],30.6 µM
same,TGI,[3],> 100 µM
same,GI50,[4],31 µM
same,TGI,[4],> 100 µM
same,GI50,[5],32.5 µM
same,TGI,[5],> 100 µM
same,GI50,[6],26.9 µM
same,TGI,[6],> 100 µM
same,GI50,[7],13.6 µM
same,TGI,[7],26.7 µM
same,GI50,[8],27.9 µM
same,TGI,[8],71.6 µM
same,GI50,[9],28.3 µM
same,TGI,[9],96.1 µM
same,GI50,[10],28.4 µM
same,TGI,[10],91.2 µM
same,GI50,[11],31.3 µM
same,TGI,[11],90.7 µM
same,GI50,[12],47.9 µM
same,TGI,[12],> 100 µM
same,GI50,[13],37.6 µM
same,TGI,[13],> 100 µM
same,GI50,[14],15.9 µM
same,TGI,[14],30 µM
same,GI50,[15],38.1 µM
same,TGI,[15],> 100 µM
same,GI50,[16],51.4 µM
same,TGI,[16],> 100 µM
same,GI50,[17],33.3 µM
same,TGI,[17],> 100 µM
same,GI50,[18],34.4 µM
same,TGI,[18],> 100 µM
same,GI50,[19],37.2 µM
same,TGI,[19],> 100 µM
same,GI50,[20],22.9 µM
same,TGI,[20],61 µM
same,GI50,[21],37.9 µM
same,TGI,[21],> 100 µM
same,GI50,[22],22 µM
same,TGI,[22],66.7 µM
same,GI50,[23],20.1 µM
same,TGI,[23],43.5 µM
same,GI50,[24],21.5 µM
same,TGI,[24],58.6 µM
same,GI50,[25],37 µM
same,TGI,[25],> 100 µM
same,GI50,[26],30.4 µM
same,TGI,[26],73 µM
same,GI50,[27],33.1 µM
same,TGI,[27],> 100 µM
same,GI50,[28],24.8 µM
same,TGI,[28],54.4 µM
same,GI50,[29],19.4 µM
same,TGI,[29],36 µM
same,GI50,[30],36.1 µM
same,TGI,[30],> 100 µM
same,GI50,[31],28.1 µM
same,TGI,[31],70 µM
same,GI50,[32],32.7 µM
same,TGI,[32],> 100 µM
same,GI50,[33],30.2 µM
same,TGI,[33],87 µM
same,GI50,[34],23.5 µM
same,TGI,[34],63.8 µM
same,GI50,[35],43.7 µM
same,TGI,[35],> 100 µM
same,GI50,[36],27.2 µM
same,TGI,[36],91.7 µM
same,GI50,[37],35.2 µM
same,TGI,[37],> 100 µM
same,GI50,[38],24.5 µM
same,TGI,[38],65.3 µM
same,GI50,[39],20 µM
same,TGI,[39],38.5 µM
same,GI50,[40],14.8 µM
same,TGI,[40],28.2 µM
same,GI50,[41],21 µM
same,TGI,[41],64.8 µM
same,GI50,[42],36.4 µM
same,TGI,[42],> 100 µM
same,GI50,[43],43.3 µM
same,TGI,[43],> 100 µM
same,GI50,[44],20.7 µM
same,TGI,[44],37.3 µM
same,GI50,[45],21.4 µM
same,TGI,[45],52 µM
same,GI50,[46],30.7 µM
same,TGI,[46],80.8 µM
same,GI50,[47],28 µM
same,TGI,[47],71.7 µM
same,GI50,[48],24.4 µM
same,TGI,[48],58.1 µM
same,GI50,[49],33.3 µM
same,TGI,[49],> 100 µM
same,GI50,[50],35 µM
same,TGI,[50],96.4 µM
same,GI50,[51],32.9 µM
same,TGI,[51],> 100 µM
same,GI50,[52],19.4 µM
same,TGI,[52],33.8 µM
same,GI50,[53],21 µM
same,TGI,[53],52.3 µM
same,GI50,[54],53.3 µM
same,TGI,[54],> 100 µM
same,GI50,[55],38.9 µM
same,TGI,[55],> 100 µM
same,GI50,[56],32 µM
same,TGI,[56],> 100 µM
same,GI50,[57],35.3 µM
same,TGI,[57],76.6 µM

# Source: PubChem BioAssay (NCI)
